Data from article PMC4911353, “Pharmacologic Inhibition of Host Phosphodiesterase-4 Improves Isoniazid-Mediated Clearance of Mycobacterium tuberculosis” (Frontiers in Immunology, 2016).

Test system: Mtb-infected mouse lungs
Test: Genome-wide lung transcriptome (microarray, IPA network/GO analysis) of Mtb-infected mice
Assay type: in vivo
Parameters: SDEGs upregulated in TNF-α interaction network / SDEGs downregulated in TNF-α interaction network: unit not given here
[1] = TNF-a regulon network, Mtb-infected mouse lungs, CC-11050 treated
[2] = lungs of treated infected animals

With `CCOc1cc([C@@H](CS(C)(=O)=O)N2Cc3cccc(NC(=O)C4CC4)c3C2=O)ccc1OC` [CC-11050, N-[2-[(1S)-1-(3-ethoxy-4-methoxyphenyl)-2-(methylsulfonyl)ethyl]-2,3-dihydro-3-oxo-1H-isoindol-4-yl]-(9Cl) cyclopropanecarboxamide] the PCK2 expression (TNF-a regulon network) was 0, the PCP4 expression (TNF-a regulon network) was 0 and the PCSK6 expression (TNF-a regulon network) was 0. It also gave a PDCD1 expression (TNF-a regulon network) of 0, a PDE2A expression (TNF-a regulon network) of 0 and a PDE8B expression (TNF-a regulon network) of 0. It also gave a PDGFA expression (TNF-a regulon network) of 0, a PDPN expression (TNF-a regulon network) of -1.216 and a PDZD2 expression (TNF-a regulon network) of 0. The PECAM1 expression (TNF-a regulon network) was 0, the PENK expression (TNF-a regulon network) was 0 and the PIGR expression (TNF-a regulon network) was 0. For the same molecule, the PKMYT1 expression (TNF-a regulon network) was 0, the PLA2G5 expression (TNF-a regulon network) was 0 and the PLA2G16 expression (TNF-a regulon network) was 0. It also gave a PLAUR expression (TNF-a regulon network) of 0, a PLIN1 expression (TNF-a regulon network) of 0 and a PLIN4 expression (TNF-a regulon network) of 0. The PLK3 expression (TNF-a regulon network) was 0, the PLSCR1 expression (TNF-a regulon network) was 0 and the PML expression (TNF-a regulon network) was 0. The PPAP2A expression (TNF-a regulon network) was 1.247, the PPARA expression (TNF-a regulon network) was 0 and the PPARD expression (TNF-a regulon network) was 0. It also gave a PPARG expression (TNF-a regulon network) of 0, a PPARGC1A expression (TNF-a regulon network) of 0 and a PPP1R3C expression (TNF-a regulon network) of 0. For the same molecule, the PRKCD expression (TNF-a regulon network) was 0, the PRSS23 expression (TNF-a regulon network) was 0 and the PSMA2 expression (TNF-a regulon network) was 0. The PSMB8 expression (TNF-a regulon network) was 0, the PSMB9 expression (TNF-a regulon network) was 0 and the PSMB10 expression (TNF-a regulon network) was 0. The PSME1 expression (TNF-a regulon network) was 0, the PSME2 expression (TNF-a regulon network) was 0 and the PXMP2 expression (TNF-a regulon network) was 0. For the same molecule, the PYCARD expression (TNF-a regulon network) was 0, the RAB32 expression (TNF-a regulon network) was 0 and the RARRES2 expression (TNF-a regulon network) was 0. For the same molecule, the RASD1 expression (TNF-a regulon network) was 0, the RCAN1 expression (TNF-a regulon network) was 0 and the RCN3 expression (TNF-a regulon network) was 1.2203. For the same molecule, the REL expression (TNF-a regulon network) was 0, the RETN expression (TNF-a regulon network) was 0 and the RFTN1 expression (TNF-a regulon network) was 0. The RFX5 expression (TNF-a regulon network) was 0, the RGS1 expression (TNF-a regulon network) was 0 and the RGS2 expression (TNF-a regulon network) was 0. For the same molecule, the RGS4 expression (TNF-a regulon network) was 0, the RGS5 expression (TNF-a regulon network) was 0 and the RGS7 expression (TNF-a regulon network) was 0. The RGS14 expression (TNF-a regulon network) was 0, the RGS16 expression (TNF-a regulon network) was 0 and the RIPK1 expression (TNF-a regulon network) was 0. The RIPK2 expression (TNF-a regulon network) was 0, the RNASE2 expression (TNF-a regulon network) was 0 and the RNASE4 expression (TNF-a regulon network) was 0. For the same molecule, the RND3 expression (TNF-a regulon network) was -1.216, the RNF149 expression (TNF-a regulon network) was 0 and the ROBO1 expression (TNF-a regulon network) was 1.1568. The RRM2 expression (TNF-a regulon network) was 0, the RUNX2 expression (TNF-a regulon network) was 0 and the S100A8 expression (TNF-a regulon network) was 0. It also gave an SAA2 expression (TNF-a regulon network) of 0, an SAMD4A expression (TNF-a regulon network) of 0 and an SCNN1A expression (TNF-a regulon network) of 0. For the same molecule, the SCNN1B expression (TNF-a regulon network) was 0, the SCNN1G expression (TNF-a regulon network) was 1.211 and the SCUBE1 expression (TNF-a regulon network) was 0. For the same molecule, the SCUBE2 expression (TNF-a regulon network) was 1.331, the SDC2 expression (TNF-a regulon network) was 0 and the SELPLG expression (TNF-a regulon network) was 0. For the same molecule, the SEMA3C expression (TNF-a regulon network) was 1.231, the SEPP1 expression (TNF-a regulon network) was 0 and the SERPINB9 expression (TNF-a regulon network) was 0. It also gave an SERPINE2 expression (TNF-a regulon network) of 0, an SERPINF1 expression (TNF-a regulon network) of 0 and an SHH expression (TNF-a regulon network) of 0. For the same molecule, the SLC14A1 expression (TNF-a regulon network) was 0, the SLC1A2 expression [1] was 0 and the SLC1A3 expression [1] was 0. It also gave an SLC1A4 expression [1] of 0, an SLC2A6 expression [1] of 0 and an SLC5A8 expression [1] of 0. The SLC7A8 expression [1] was 0, the SLC20A1 expression [1] was 0 and the SLFN12L expression [1] was 0. The SMAD3 expression [1] was 0, the SMPD1 expression [1] was 0 and the SMPD2 expression [1] was 0. The SMPDL3A expression [1] was 1.176, the SMURF1 expression [1] was 0 and the SMURF2 expression [1] was 1.4579. For the same molecule, the SNCG expression [1] was 0, the SND1 expression [1] was 0 and the SOCS3 expression [1] was 0. The SOD1 expression [1] was 1.19, the SP1 expression [1] was 0 and the SP3 expression [1] was 0. The SPHK1 expression [1] was 0, the SQSTM1 expression [1] was 0 and the ST3GAL5 expression [1] was 0. It also gave an ST3GAL6 expression [1] of 0, an ST6GAL1 expression [1] of 0 and an STARD3 expression [1] of 0. For the same molecule, the STAT4 expression [1] was 0, the STEAP4 expression [1] was 0 and the STMN1 expression [1] was -1.16. It also gave an SULT2A1 expression [1] of 0, an SYTL1 expression [1] of 0 and a Slco1a4 expression [1] of 0. For the same molecule, the TAP1 expression [1] was 0, the TAPBP expression [1] was 0 and the TBX21 expression [1] was 0. It also gave a TBXAS1 expression [1] of 0, a TDRD7 expression [1] of 0 and a TEK expression [1] of 0. The TF expression [1] was 0, the THY1 expression [1] was 0 and the TIMP2 expression [1] was 0. For the same molecule, the TIMP4 expression [1] was 0, the TJP1 expression [1] was 0 and the TLR7 expression [1] was 0. The TLR8 expression [1] was 0, the TM4SF1 expression [1] was 0 and the TNF expression [1] was 0. The TNFAIP2 expression [1] was 0, the TNFAIP3 expression [1] was 0 and the TNFAIP6 expression [1] was 0. For the same molecule, the TNFAIP8 expression [1] was 0, the TNFRSF11A expression [1] was -1.191 and the TNFRSF18 expression [1] was 0. The TNFSF10 expression [1] was 0, the TNFSF13B expression [1] was 0 and the TNIP1 expression [1] was 0. The TNN expression [1] was 0, the TPD52L2 expression [1] was 1.132 and the TPT1 expression [1] was 0. The TRADD expression [1] was 0, the TRAF1 expression [1] was 0 and the TRAF2 expression [1] was 0. It also gave a TRAF3 expression [1] of 0, a TRAFD1 expression [1] of 0 and a TREM2 expression [1] of 0. For the same molecule, the TWIST2 expression [1] was 0, the TXNIP expression [1] was 1.1361 and the TYK2 expression [1] was 0. The Tgtp1/Tgtp2 expression [1] was 0, the UBD expression [1] was 0 and the UBE2H expression [1] was 0. It also gave a UCP1 expression [1] of 0, a VASP expression [1] of 0 and a VCAM1 expression [1] of 0. For the same molecule, the VIPR2 expression [1] was 0, the WHSC1 expression [1] was 0 and the WISP1 expression [1] was 0. It also gave a WLS expression [1] of 0, a WNT5A expression [1] of 0 and a WNT7A expression [1] of 0. For the same molecule, the WTAP expression [1] was 0, the ZC3H12A expression [1] was 0 and the ZNF365 expression [1] was 0. For the same molecule, the “Genes downregulated in lung inflammation network” value [2] was “four”, the “Genes upregulated in lung inflammation network” value [2] was “nine” and the “SDEGs downregulated in TNF-α interaction network” value [2] was 8. For the same molecule, the “SDEGs upregulated in TNF-α interaction network” value [2] was 33, the “Il-17 interaction network genes whose expression was dampened” value (lungs of treated infected mice) was 87% and the “Genes significantly differentially expressed in Il-17 interaction network” value (lungs of treated infected mice, HmgB1, Il17F, Entpd1, HspB8) was “four”.
